Source: US20220169632A1, “METHODS AND MATERIALS FOR INCREASING OR MAINTAINING NICOTINAMIDE MONONUCLEOTIDE ADENYLYL TRANSFERASE-2 (NMNAT2) POLYPEPTIDE LEVELS” (University of Pittsburgh - Of the Commonwealth System of …, priority 2019, published 2022)

System: NMNAT2
Test: NMNAT2-Hibit nano-luciferase activity in stably transfected U87MG cells, various concentrations, 24 hours
Assay type: cell-based
Conditions: U87MG cells stably transfected with NMNAT2-Hibit luc plasmid
Procedure: Selected compounds were tested in vitro. U87MG cells were stably transfected with NMNAT2-Hibit luc plasmid. Cells were treated with a test compound at various concentrations for 24 hours. Cells were then collected and assayed for nano-luciferase activity.

SMILES	E: compound efficacy for NMNAT2 activation (concentration giving >25% increase in NMNAT2 luciferase activity)
COc1ccccc1CNC(=O)CCCc1cn(Cc2cccc(F)c2)c2ccccc12 [BC20142]	++ (“++” >25% increase in NMNAT2 luciferase activity at >1 μM ≤25 μM.)
Cc1cccc(Cn2cc(CCCC(=O)Nc3cccc(C)c3C)c3ccccc32)c1 [BC20175]	++ (“++” >25% increase in NMNAT2 luciferase activity at >1 μM ≤25 μM.)
Cc1cccc(CNC(=O)Cn2c3c(c4ccccc42)CC(C(=O)NCc2ccco2)CC3)c1 (stereo not shown) [BC20288]	++ (“++” >25% increase in NMNAT2 luciferase activity at >1 μM ≤25 μM.)
O=C(CCCc1cn(Cc2ccccc2F)c2ccccc12)NCc1ccccc1F [BC20210]	+ (“+” >25% increase in NMNAT2 luciferase activity at >25 μM.)
Cc1ccc(C)c(Cn2cc([C@H]3C[C@@H]3C(=O)NCc3ccco3)c3ccccc32)c1 (racemic) [BC20344]	+ (“+” >25% increase in NMNAT2 luciferase activity at >25 μM.)
CCCCN(CC)Cc1ccc(CNC(=O)c2ccc3c(c2)c(C)c(C)n3Cc2ccccc2F)o1 [BC20198]	+++ (“+++” >25% increase in NMNAT2 luciferase activity at ≤1 μM.)
Cc1cccc(Cn2cc(CCCC(=O)NC(C)Cc3ccco3)c3ccccc32)c1 (stereo not shown) [BC20171]	+++ (“+++” >25% increase in NMNAT2 luciferase activity at ≤1 μM.)
CCOC(=O)Cn1cc(C2=CC(=O)NCC2)c2ccccc21 [BC20234]	++ (“++” >25% increase in NMNAT2 luciferase activity at >1 μM ≤25 μM.)
Cc1c(C)n(Cc2ccccc2F)c2ccc(C(=O)NC(C)Cc3ccco3)cc12 (stereo not shown) [BC20244]	+ (“+” >25% increase in NMNAT2 luciferase activity at >25 μM.)
Cc1ccc(C)c(Cn2c(C(F)F)c(CCC(=O)NCC3CCCO3)c3ccccc32)c1 (stereo not shown) [BC20392]	+ (“+” >25% increase in NMNAT2 luciferase activity at >25 μM.)
CCCCN(CC)Cc1ccc(CNC(=O)c2ccc3c(c2)c(C)c(C)n3Cc2ccccc2C)o1 [BC20266]	++ (“++” >25% increase in NMNAT2 luciferase activity at >1 μM ≤25 μM.)
Cc1c(C)n(Cc2ccccc2F)c2ccc(C(=O)NCc3cccc(F)c3)cc12 [BC20104]	++ (“++” >25% increase in NMNAT2 luciferase activity at >1 μM ≤25 μM.)
COc1cccc(CNC(=O)C2CCCc3c2c2ccccc2n3Cc2ccc(C)cc2)c1 (stereo not shown) [BC20387]	+ (“+” >25% increase in NMNAT2 luciferase activity at >25 μM.)
COc1cccc(CNC(=O)C2CCc3c(c4ccccc4n3Cc3cccc(F)c3)C2)c1 (stereo not shown) [BC20226]	+ (“+” >25% increase in NMNAT2 luciferase activity at >25 μM.)
CCCCN(CC)Cc1ccc(CNC(=O)C2CCCc3c2c2ccccc2n3Cc2cccc(F)c2)o1 (stereo not shown) [BC20381]	++ (“++” >25% increase in NMNAT2 luciferase activity at >1 μM ≤25 μM.)
COc1ccccc1CNC(=O)C1CCCc2c1c1ccccc1n2Cc1cccc(F)c1 (stereo not shown) [BC20374]	+ (“+” >25% increase in NMNAT2 luciferase activity at >25 μM.)
Cc1c(C)n(Cc2ccccc2F)c2ccc(C(=O)NCCc3ccccc3)cc12 [BC20245]	++ (“++” >25% increase in NMNAT2 luciferase activity at >1 μM ≤25 μM.)
O=C1CC(c2cn(Cc3cccc(F)c3)c3ccccc23)CCN1Cc1ccccc1F (stereo not shown) [BC20318]	+ (“+” >25% increase in NMNAT2 luciferase activity at >25 μM.)
COc1ccccc1CNC(=O)C1CCc2c(c3ccccc3n2Cc2ccncc2)C1 (stereo not shown) [BC20282]	+ (“+” >25% increase in NMNAT2 luciferase activity at >25 μM.)
Cc1cccc(Cn2cc(CCCC(=O)NCc3ccc(C)o3)c3ccccc32)c1 [BC20164]	+++ (“+++” >25% increase in NMNAT2 luciferase activity at ≤1 μM.)
COc1ccccc1CNC(=O)C1CCc2c(c3ccccc3n2CC(=O)NCc2ccco2)C1 (stereo not shown) [BC20240]	++ (“++” >25% increase in NMNAT2 luciferase activity at >1 μM ≤25 μM.)
COc1cccc(CNC(=O)C2CCc3c(c4ccccc4n3Cc3ccncc3)C2)c1 (stereo not shown) [BC20283]	+ (“+” >25% increase in NMNAT2 luciferase activity at >25 μM.)
Cc1cccc(Cn2cc(CCCC(=O)NCc3cccc(F)c3)c3ccccc32)c1 [BC20166]	++ (“++” >25% increase in NMNAT2 luciferase activity at >1 μM ≤25 μM.)

SMILES	E: compound efficacy for NMNAT2 activation (concentration giving >25% increase in NMNAT2 luciferase activity)
O=C(Cn1cc2c3c(cccc31)C(=O)N(Cc1cccc(F)c1)CC2)NCc1cccc(F)c1 [BC20355]	++ (“++” >25% increase in NMNAT2 luciferase activity at >1 μM ≤25 μM.)
O=C(Cn1c2c(c3ccccc31)CC(C(=O)NCC1CCCO1)CC2)NCc1ccco1 (stereo not shown) [BC20237]	++ (“++” >25% increase in NMNAT2 luciferase activity at >1 μM ≤25 μM.)
Cc1ccc(C)c(Cn2cc([C@H]3C[C@@H]3C(=O)NC(C)Cc3ccco3)c3ccccc32)c1 (mixture of isomers) [BC20363]	++ (“++” >25% increase in NMNAT2 luciferase activity at >1 μM ≤25 μM.)
CCCCN(CC)Cc1ccc(CNC(=O)c2ccc3c(c2)c(C)c(C)n3Cc2cccc(F)c2)o1 [BC20120]	+++ (“+++” >25% increase in NMNAT2 luciferase activity at ≤1 μM.)
Cc1c(C)n(Cc2cccc(F)c2)c2ccc(C(=O)NCc3ccco3)cc12 [BC20101]	+++ (“+++” >25% increase in NMNAT2 luciferase activity at ≤1 μM.)
Cc1cccc(NC(=O)CCCc2cn(Cc3cccc(F)c3)c3ccccc23)c1C [BC20149]	++ (“++” >25% increase in NMNAT2 luciferase activity at >1 μM ≤25 μM.)
Cc1ccc(Cn2cc([C@H]3C[C@@H]3C(=O)NCc3ccco3)c3ccccc32)cc1 (racemic) [BC20293]	++ (“++” >25% increase in NMNAT2 luciferase activity at >1 μM ≤25 μM.)
Cc1ccc(Cn2cc([C@H]3C[C@@H]3C(=O)NCc3cccc(F)c3)c3ccccc32)cc1 (racemic) [BC20295]	+ (“+” >25% increase in NMNAT2 luciferase activity at >25 μM.)
COc1cccc(CNC(=O)CCCc2cn(Cc3ccccc3C)c3ccccc23)c1 [BC20156]	++ (“++” >25% increase in NMNAT2 luciferase activity at >1 μM ≤25 μM.)
O=C(NCc1ccccc1F)C1CCc2c(c3ccccc3n2Cc2cccc(F)c2)C1 (stereo not shown) [BC20256]	+ (“+” >25% increase in NMNAT2 luciferase activity at >25 μM.)
Cc1ccc(C)c(Cn2c(C(F)F)c(CCC(=O)NCc3ccccc3C)c3ccccc32)c1 [BC20395]	++ (“++” >25% increase in NMNAT2 luciferase activity at >1 μM ≤25 μM.)
COc1ccc(CN2CC(C(=O)c3cn(Cc4ccccc4F)c4ccccc34)CC2=O)c(OC)c1 (stereo not shown) [BC20304]	+ (“+” >25% increase in NMNAT2 luciferase activity at >25 μM.)
Cc1ccc(Cn2cc([C@H]3C[C@@H]3C(=O)NCCc3ccccc3)c3ccccc32)cc1 (racemic) [BC20300]	++ (“++” >25% increase in NMNAT2 luciferase activity at >1 μM ≤25 μM.)
Cc1ccc(CNC(=O)N2CCc3c(c4ccccc4n3Cc3ccncc3)C2)cc1 [BC20337]	+ (“+” >25% increase in NMNAT2 luciferase activity at >25 μM.)
Fc1cccc(Cn2c3c(c4ccccc42)CNCC3)c1 [BC20333]	++ (“++” >25% increase in NMNAT2 luciferase activity at >1 μM ≤25 μM.)
CCCCN(CC)Cc1ccc(CNC(=O)CCCc2cn(Cc3ccccc3C)c3ccccc23)o1 [BC20162]	+++ (“+++” >25% increase in NMNAT2 luciferase activity at ≤1 μM.)
Cc1cccc(CNC(=O)[C@H]2C[C@@H]2c2cn(Cc3cc(C)ccc3C)c3ccccc23)c1 (racemic) [BC20348]	+ (“+” >25% increase in NMNAT2 luciferase activity at >25 μM.)
Cc1c(C)n(Cc2cccc(F)c2)c2ccc(C(=O)N3CCN(C(=O)c4ccco4)CC3)cc12 [BC20117]	++ (“++” >25% increase in NMNAT2 luciferase activity at >1 μM ≤25 μM.)
COc1cccc(CNC(=O)Cn2cc(C(=O)c3ccc(Cl)cc3)c3ccccc32)c1 [BC20181]	++ (“++” >25% increase in NMNAT2 luciferase activity at >1 μM ≤25 μM.)
O=C(CCCc1cn(Cc2cccc(F)c2)c2ccccc12)NCc1ccccc1F [BC20138]	++ (“++” >25% increase in NMNAT2 luciferase activity at >1 μM ≤25 μM.)
O=C(CCCc1cn(Cc2cccc(F)c2)c2ccccc12)N1CCN(C(=O)c2ccco2)CC1 [BC20144]	++ (“++” >25% increase in NMNAT2 luciferase activity at >1 μM ≤25 μM.)
Cc1cccc(CNC(=O)CCCc2cn(Cc3ccccc3C)c3ccccc23)c1 [BC20154]	+ (“+” >25% increase in NMNAT2 luciferase activity at >25 μM.)
Cc1ccc(Cn2c3c(c4ccccc42)C(C(=O)NCc2ccncc2)CCC3)cc1 (stereo not shown) [BC20390]	+ (“+” >25% increase in NMNAT2 luciferase activity at >25 μM.)
